The values below come from PubChem BioAssay (NCI).

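Interpolation was linear, between the two tested concentrations surrounding the appropriate level; five concentrations were tested over 48 hours in 96-well plates. The concentration for full growth arrest is given as TGI.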

The first experiment deals with 786-0 renal. The experiment is described as follows: NCI tumour cell line growth inhibition, 48 h.
The molecule `CCOP(=O)(OCC)[C@H](O)c1ccsc1` yielded a TGI of more than 100 µM.

On to `COc1ccc(Nc2[nH]c(C(C)=O)c(N)c2C(=S)Nc2ccccc2)cc1`, for which the TGI was more than 100 µM.

`Oc1ccccc1C(c1cc2c(cc1O)OCO2)N1CCOCC1` (stereo not given): the TGI was 22.6 µM.

For the molecule `CCN(CC)CCOC(c1cc(OC)ccc1OC)c1ccc2n1-c1ccccc1OC2` (stereo not given), the TGI is 36.9 µM.

A further experiment concerns A498 renal. The experiment is described as follows: NCI tumour cell line growth inhibition, 48 h.
Take `CCOP(=O)(OCC)[C@H](O)c1ccsc1`: the TGI was more than 100 µM.

`COc1ccc(Nc2[nH]c(C(C)=O)c(N)c2C(=S)Nc2ccccc2)cc1` registered a TGI of more than 100 µM.

For `Oc1ccccc1C(c1cc2c(cc1O)OCO2)N1CCOCC1` (stereo not given), the TGI was 42.2 µM.

In turn, `CCN(CC)CCOC(c1cc(OC)ccc1OC)c1ccc2n1-c1ccccc1OC2` (stereo not given) came in with a TGI of 24.1 µM.

Another experiment deals with A549 NSCLC. The experiment is described as follows: NCI tumour cell line growth inhibition, 48 h.
For `CCOP(=O)(OCC)[C@H](O)c1ccsc1`, the TGI was more than 100 µM.

`COc1ccc(Nc2[nH]c(C(C)=O)c(N)c2C(=S)Nc2ccccc2)cc1` gave a TGI of more than 100 µM.

With `Oc1ccccc1C(c1cc2c(cc1O)OCO2)N1CCOCC1` (stereo not given), the TGI was determined as 57.6 µM.

`CCN(CC)CCOC(c1cc(OC)ccc1OC)c1ccc2n1-c1ccccc1OC2` (stereo not given) showed a TGI of 26.9 µM.

For a further experiment, the system named is ACHN renal. The experiment is described as follows: NCI tumour cell line growth inhibition, 48 h.
On to `CCOP(=O)(OCC)[C@H](O)c1ccsc1`, for which the TGI was more than 100 µM.

In the case of `COc1ccc(Nc2[nH]c(C(C)=O)c(N)c2C(=S)Nc2ccccc2)cc1`, the TGI was more than 100 µM.

`Oc1ccccc1C(c1cc2c(cc1O)OCO2)N1CCOCC1` (stereo not given): the TGI was determined as 31.5 µM.

`CCN(CC)CCOC(c1cc(OC)ccc1OC)c1ccc2n1-c1ccccc1OC2` (stereo not given) yielded a TGI of 26.7 µM.

For the next experiment, the system named is BT-549 breast. The experiment is described as follows: NCI tumour cell line growth inhibition, 48 h.
Molecule `CCOP(=O)(OCC)[C@H](O)c1ccsc1` registered a TGI of more than 100 µM.

As for `COc1ccc(Nc2[nH]c(C(C)=O)c(N)c2C(=S)Nc2ccccc2)cc1`, the TGI was more than 100 µM.

In turn, `Oc1ccccc1C(c1cc2c(cc1O)OCO2)N1CCOCC1` (stereo not given) showed a TGI of 30.9 µM.

Regarding `CCN(CC)CCOC(c1cc(OC)ccc1OC)c1ccc2n1-c1ccccc1OC2` (stereo not given), the TGI is 25.2 µM.

The test system of a further experiment is CAKI-1 renal. The experiment is described as follows: NCI tumour cell line growth inhibition, 48 h.
With `CCOP(=O)(OCC)[C@H](O)c1ccsc1`, the TGI is more than 100 µM.

On to `COc1ccc(Nc2[nH]c(C(C)=O)c(N)c2C(=S)Nc2ccccc2)cc1`, for which the TGI was more than 100 µM.

In turn, `Oc1ccccc1C(c1cc2c(cc1O)OCO2)N1CCOCC1` (stereo not given) returned a TGI of 35.9 µM.

For `CCN(CC)CCOC(c1cc(OC)ccc1OC)c1ccc2n1-c1ccccc1OC2` (stereo not given), the TGI is 30 µM.

Another experiment deals with CCRF-CEM leukemia. The experiment is described as follows: NCI tumour cell line growth inhibition, 48 h.
Turning to `CCOP(=O)(OCC)[C@H](O)c1ccsc1`, the TGI is more than 100 µM.

In turn, `COc1ccc(Nc2[nH]c(C(C)=O)c(N)c2C(=S)Nc2ccccc2)cc1` had a TGI of more than 100 µM.

`Oc1ccccc1C(c1cc2c(cc1O)OCO2)N1CCOCC1` (stereo not given) registered a TGI of 5.26 µM.

`CCN(CC)CCOC(c1cc(OC)ccc1OC)c1ccc2n1-c1ccccc1OC2` (stereo not given) yielded a TGI of 17.2 µM.

The next experiment relates to COLO 205 colon. The experiment is described as follows: NCI tumour cell line growth inhibition, 48 h.
Take `CCOP(=O)(OCC)[C@H](O)c1ccsc1`: the TGI is more than 100 µM.

In the case of `COc1ccc(Nc2[nH]c(C(C)=O)c(N)c2C(=S)Nc2ccccc2)cc1`, the TGI is 48.1 µM.

On to `Oc1ccccc1C(c1cc2c(cc1O)OCO2)N1CCOCC1` (stereo not given), for which the TGI amounted to 34.8 µM.

`CCN(CC)CCOC(c1cc(OC)ccc1OC)c1ccc2n1-c1ccccc1OC2` (stereo not given): the TGI was 17.9 µM.

In the next experiment the test system is DU-145 prostate. The experiment is described as follows: NCI tumour cell line growth inhibition, 48 h.
In the case of `CCOP(=O)(OCC)[C@H](O)c1ccsc1`, the TGI was more than 100 µM.

The molecule `COc1ccc(Nc2[nH]c(C(C)=O)c(N)c2C(=S)Nc2ccccc2)cc1` had a TGI of more than 100 µM.

The molecule `Oc1ccccc1C(c1cc2c(cc1O)OCO2)N1CCOCC1` (stereo not given) had a TGI of more than 100 µM.

Take `CCN(CC)CCOC(c1cc(OC)ccc1OC)c1ccc2n1-c1ccccc1OC2` (stereo not given): the TGI was found to be 60.7 µM.

The subject of a further experiment is EKVX NSCLC. The experiment is described as follows: NCI tumour cell line growth inhibition, 48 h.
With `CCOP(=O)(OCC)[C@H](O)c1ccsc1`, the TGI was more than 100 µM.

With `COc1ccc(Nc2[nH]c(C(C)=O)c(N)c2C(=S)Nc2ccccc2)cc1`, the TGI is more than 100 µM.

The molecule `Oc1ccccc1C(c1cc2c(cc1O)OCO2)N1CCOCC1` (stereo not given) returned a TGI of more than 100 µM.

For `CCN(CC)CCOC(c1cc(OC)ccc1OC)c1ccc2n1-c1ccccc1OC2` (stereo not given), the TGI was found to be 33.1 µM.

A further experiment relates to HCC-2998 colon. The experiment is described as follows: NCI tumour cell line growth inhibition, 48 h.
In turn, `CCOP(=O)(OCC)[C@H](O)c1ccsc1` registered a TGI of more than 100 µM.

`COc1ccc(Nc2[nH]c(C(C)=O)c(N)c2C(=S)Nc2ccccc2)cc1` gave a TGI of more than 100 µM.

Take `Oc1ccccc1C(c1cc2c(cc1O)OCO2)N1CCOCC1` (stereo not given): the TGI is 33.9 µM.

On to `CCN(CC)CCOC(c1cc(OC)ccc1OC)c1ccc2n1-c1ccccc1OC2` (stereo not given), for which the TGI was 20.9 µM.

The test system of a further experiment is HCT-116 colon. The experiment is described as follows: NCI tumour cell line growth inhibition, 48 h.
`CCOP(=O)(OCC)[C@H](O)c1ccsc1` displayed a TGI of more than 100 µM.

In turn, `COc1ccc(Nc2[nH]c(C(C)=O)c(N)c2C(=S)Nc2ccccc2)cc1` came in with a TGI of more than 100 µM.

`Oc1ccccc1C(c1cc2c(cc1O)OCO2)N1CCOCC1` (stereo not given) registered a TGI of 31.5 µM.

Molecule `CCN(CC)CCOC(c1cc(OC)ccc1OC)c1ccc2n1-c1ccccc1OC2` (stereo not given) gave a TGI of more than 100 µM.

The subject of another experiment is HCT-15 colon. The experiment is described as follows: NCI tumour cell line growth inhibition, 48 h.
In turn, `CCOP(=O)(OCC)[C@H](O)c1ccsc1` showed a TGI of more than 100 µM.

For the molecule `COc1ccc(Nc2[nH]c(C(C)=O)c(N)c2C(=S)Nc2ccccc2)cc1`, the TGI was more than 100 µM.

The molecule `Oc1ccccc1C(c1cc2c(cc1O)OCO2)N1CCOCC1` (stereo not given) came in with a TGI of 36.8 µM.

`CCN(CC)CCOC(c1cc(OC)ccc1OC)c1ccc2n1-c1ccccc1OC2` (stereo not given) registered a TGI of 23.6 µM.

A further experiment deals with HL-60(TB) leukemia. The experiment is described as follows: NCI tumour cell line growth inhibition, 48 h.
`COc1ccc(Nc2[nH]c(C(C)=O)c(N)c2C(=S)Nc2ccccc2)cc1` registered a TGI of more than 100 µM.

As for `Oc1ccccc1C(c1cc2c(cc1O)OCO2)N1CCOCC1` (stereo not given), the TGI worked out at 4.27 µM.

The molecule `CCN(CC)CCOC(c1cc(OC)ccc1OC)c1ccc2n1-c1ccccc1OC2` (stereo not given) returned a TGI of 30.4 µM.
